In patent US10077232B2, “Cyclic cationic lipids and methods of use” (ARBUTUS BIOPHARMA CORPORATION, priority 2010, dated 2018):

Experiment: TNS assay, apparent pKa of cationic lipids in 1:57 SNALP
Experimental: The apparent pKa of the cationic lipids present in these SNALP formulations was determined using a 2-(p-toluidinyl)-naphthalene-6-sodium sulfonate (TNS) assay. TNS is a negatively-charged indicator of membrane potential that is electrostatically attracted to positively charged membranes (see, Bailey and Cullis, Biochemistry, 33 12573-80 (1994)). Subsequent adsorption to the lipid membrane results in the immediate environment of the TNS becoming more lipophilic, removing the water molecules that otherwise quench TNS fluorescence. As a result, TNS measures the surface potential of the particle, wherein the more positive the surface potential, the greater the level of fluorescence. The surface pKa values of each SNALP formulation were determined by varying the local pH in the presence of TNS. By plotting fluorescence versus pH, the pKa of the cationic lipid can be estimated in the particle as the pH where fluorescence equals 50% of total fluorescence.

| Structure (SMILES) | pKa | pKa (apparent, surface) (1:57 SNALP with encapsulated ApoB siRNA, pH where TNS fluorescence equals 50% of total) |
| --- | --- | --- |
| CCC1CC1CC1CC1CC1CC1CCCCCCCCOCC(CN(C)C)OCCCCCCCCC1CC1CC1CC1CC1CC1CC (stereo not drawn) [CP-DLenDMA] | ~5.85 | – |
| CCCCCC1CC1CC1CC1CCCCCCCCOCC(CN(C)C)OCCCCCCCCC1CC1CC1CC1CCCCC (stereo not drawn) [CP-DLinDMA] | ~5.8 | – |
| CCCCCCCCC1CC1CCCCCCCCOCC(CN(C)C)OCCCCCCCCC1CC1CCCCCCCC (stereo not drawn) [CP-DODMA] | ~5.8 | – |
| CCCCCCCCCCCC1CC1CCCCCOCC(CN(C)C)OCCCCCC1CC1CCCCCCCCCCC (stereo not drawn) [CP-DPetroDMA] | ~5.95 | – |
| CCC1CC1CC1CC1CC1CC1CCCCCCCCC(CCCCCCCCC1CC1CC1CC1CC1CC1CC)OC(=O)CCCN(C)C (stereo not drawn) [CP-LenMC3] | ~6.1 | – |
| CCCCCC1CC1CC1CC1CC1CC1CCCCCOCC(CN(C)C)OCCCCCC1CC1CC1CC1CC1CC1CCCCC (stereo not drawn) [CP-γ-DLenDMA] | ~5.8 | – |
| CCCCCC1CC1CC1CC1CC1CC1CCCCCC(CCCCCC1CC1CC1CC1CC1CC1CCCCC)OC(=O)CCCN(C)C (stereo not drawn) [CP-γ-LenMC3] | ~6 | – |
| CCCCC/C=C\C/C=C\CCCCCCCCOCC(COCC(CCN(C)C)OCCCCCCCC/C=C\C/C=C\CCCCC)OCCCCCCCC/C=C\C/C=C\CCCCC (stereo not drawn) [Compound C2-TLinDMA, reference compound] | – | ~5.85 |
| CCCCC/C=C\C/C=C\C/C=C\CCCCCC(CCCCC/C=C\C/C=C\C/C=C\CCCCC)OC(=O)CCCN(C)C [g-Len-MC3] | ~6.1 | – |
